Usually AC50 stands for the midpoint of the concentration-response curve, whichever way the signal moves.

Among the data in ChEMBL document CHEMBL5291721, “A preclinical secondary pharmacology resource illuminates target-adverse drug reaction associations of marketed drugs” (Nat Commun, 2023) are AC50 values, retold here.

The target in one assay is Acetylcholinesterase (Homo sapiens, UniProt P22303). It counts as functional.
The target in assay [1] is T1, Muscarinic acetylcholine receptor M1 (Homo sapiens, UniProt P11229).
T1 sequence (P11229 whole entry): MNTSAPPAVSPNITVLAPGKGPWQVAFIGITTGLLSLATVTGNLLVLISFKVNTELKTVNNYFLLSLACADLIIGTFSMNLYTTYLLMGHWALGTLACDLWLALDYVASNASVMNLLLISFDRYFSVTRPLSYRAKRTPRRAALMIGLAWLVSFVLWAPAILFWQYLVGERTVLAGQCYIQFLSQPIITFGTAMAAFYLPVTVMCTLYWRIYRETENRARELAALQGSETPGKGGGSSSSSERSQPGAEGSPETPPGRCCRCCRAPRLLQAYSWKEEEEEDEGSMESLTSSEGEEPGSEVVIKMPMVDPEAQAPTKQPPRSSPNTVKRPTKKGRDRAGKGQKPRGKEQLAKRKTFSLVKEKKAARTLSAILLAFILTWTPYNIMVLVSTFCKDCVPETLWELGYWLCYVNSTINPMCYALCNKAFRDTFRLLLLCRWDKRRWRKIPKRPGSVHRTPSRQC
It counts as functional, cell-based.

The target of another assay is D(3) dopamine receptor (Homo sapiens, UniProt P35462).
Another assay deals with Prothrombin (Homo sapiens, UniProt P00734). It counts as functional.
Assay [2] has as its target T2, Gamma-aminobutyric acid receptor subunit alpha-1 (Rattus norvegicus, UniProt P62813).
In the next assay the target is Histamine H3 receptor (Homo sapiens, UniProt Q9Y5N1).
Assay [3] deals with T3, 5-hydroxytryptamine receptor 1A (Homo sapiens, UniProt P08908).
T3 sequence (P08908 whole entry): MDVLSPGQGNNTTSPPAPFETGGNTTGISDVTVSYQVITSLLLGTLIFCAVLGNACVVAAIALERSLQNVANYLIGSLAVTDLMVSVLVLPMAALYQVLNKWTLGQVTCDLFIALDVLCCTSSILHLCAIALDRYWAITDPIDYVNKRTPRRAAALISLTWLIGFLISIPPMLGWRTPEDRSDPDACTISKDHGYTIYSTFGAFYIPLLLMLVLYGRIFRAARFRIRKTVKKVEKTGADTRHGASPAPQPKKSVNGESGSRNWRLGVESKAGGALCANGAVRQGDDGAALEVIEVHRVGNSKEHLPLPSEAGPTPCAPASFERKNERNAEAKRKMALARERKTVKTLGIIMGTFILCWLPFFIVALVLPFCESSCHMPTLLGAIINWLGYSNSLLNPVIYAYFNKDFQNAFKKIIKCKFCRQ

In assay [4] the target is Voltage-gated inwardly rectifying potassium channel KCNH2 (Homo sapiens, UniProt Q12809). The assay is classed as functional.
The target in assay [5] is cGMP-inhibited 3',5'-cyclic phosphodiesterase 3A (Homo sapiens, UniProt Q14432). It counts as functional.
The target of a further assay is T4, Progesterone receptor (Homo sapiens, UniProt P06401).
T4 sequence (P06401 whole entry): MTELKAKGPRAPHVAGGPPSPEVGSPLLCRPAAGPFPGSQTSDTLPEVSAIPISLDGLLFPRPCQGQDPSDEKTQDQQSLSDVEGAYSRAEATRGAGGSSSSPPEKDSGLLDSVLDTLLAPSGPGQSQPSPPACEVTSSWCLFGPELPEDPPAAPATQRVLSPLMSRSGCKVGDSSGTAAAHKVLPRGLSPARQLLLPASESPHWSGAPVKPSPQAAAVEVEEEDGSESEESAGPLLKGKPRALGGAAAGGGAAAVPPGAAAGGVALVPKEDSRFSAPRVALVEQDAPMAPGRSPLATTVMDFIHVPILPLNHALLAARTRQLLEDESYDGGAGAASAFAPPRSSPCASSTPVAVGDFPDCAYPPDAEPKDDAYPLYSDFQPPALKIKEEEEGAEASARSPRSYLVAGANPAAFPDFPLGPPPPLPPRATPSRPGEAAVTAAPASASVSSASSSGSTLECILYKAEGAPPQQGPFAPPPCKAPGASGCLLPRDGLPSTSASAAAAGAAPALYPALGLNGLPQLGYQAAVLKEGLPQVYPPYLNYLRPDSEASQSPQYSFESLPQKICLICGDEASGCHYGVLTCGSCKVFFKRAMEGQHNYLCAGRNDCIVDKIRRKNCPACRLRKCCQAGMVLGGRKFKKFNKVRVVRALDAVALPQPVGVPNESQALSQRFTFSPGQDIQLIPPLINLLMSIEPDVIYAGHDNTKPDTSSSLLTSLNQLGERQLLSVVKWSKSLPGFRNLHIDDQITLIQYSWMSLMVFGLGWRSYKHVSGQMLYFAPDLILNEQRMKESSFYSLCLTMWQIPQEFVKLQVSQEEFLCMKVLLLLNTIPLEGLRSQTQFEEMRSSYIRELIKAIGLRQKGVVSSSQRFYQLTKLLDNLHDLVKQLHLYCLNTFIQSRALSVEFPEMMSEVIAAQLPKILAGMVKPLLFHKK

Assay [6] concerns the target Prostaglandin G/H synthase 1 (Homo sapiens, UniProt P23219). It counts as functional.
Assay [7] addresses Sodium-dependent dopamine transporter (Homo sapiens, UniProt Q01959).
For the next assay, the target named is T5, Thromboxane A2 receptor (Homo sapiens, UniProt P21731).
T5 sequence (P21731 whole entry): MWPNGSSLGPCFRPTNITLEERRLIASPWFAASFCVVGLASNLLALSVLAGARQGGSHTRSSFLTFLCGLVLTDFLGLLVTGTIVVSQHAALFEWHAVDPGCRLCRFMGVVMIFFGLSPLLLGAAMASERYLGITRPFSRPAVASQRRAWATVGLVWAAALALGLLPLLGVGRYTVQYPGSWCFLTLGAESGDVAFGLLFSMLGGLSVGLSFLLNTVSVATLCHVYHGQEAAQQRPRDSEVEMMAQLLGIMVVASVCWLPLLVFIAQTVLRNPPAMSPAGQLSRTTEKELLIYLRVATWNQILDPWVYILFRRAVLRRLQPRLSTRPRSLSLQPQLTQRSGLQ
It counts as functional, cell-based.

Assay [8] concerns the target T2, Gamma-aminobutyric acid receptor subunit alpha-1. It counts as functional.
Also: assay procedure not described here.

Sequence of Voltage-gated inwardly rectifying potassium channel KCNH2 (Q12809 whole entry): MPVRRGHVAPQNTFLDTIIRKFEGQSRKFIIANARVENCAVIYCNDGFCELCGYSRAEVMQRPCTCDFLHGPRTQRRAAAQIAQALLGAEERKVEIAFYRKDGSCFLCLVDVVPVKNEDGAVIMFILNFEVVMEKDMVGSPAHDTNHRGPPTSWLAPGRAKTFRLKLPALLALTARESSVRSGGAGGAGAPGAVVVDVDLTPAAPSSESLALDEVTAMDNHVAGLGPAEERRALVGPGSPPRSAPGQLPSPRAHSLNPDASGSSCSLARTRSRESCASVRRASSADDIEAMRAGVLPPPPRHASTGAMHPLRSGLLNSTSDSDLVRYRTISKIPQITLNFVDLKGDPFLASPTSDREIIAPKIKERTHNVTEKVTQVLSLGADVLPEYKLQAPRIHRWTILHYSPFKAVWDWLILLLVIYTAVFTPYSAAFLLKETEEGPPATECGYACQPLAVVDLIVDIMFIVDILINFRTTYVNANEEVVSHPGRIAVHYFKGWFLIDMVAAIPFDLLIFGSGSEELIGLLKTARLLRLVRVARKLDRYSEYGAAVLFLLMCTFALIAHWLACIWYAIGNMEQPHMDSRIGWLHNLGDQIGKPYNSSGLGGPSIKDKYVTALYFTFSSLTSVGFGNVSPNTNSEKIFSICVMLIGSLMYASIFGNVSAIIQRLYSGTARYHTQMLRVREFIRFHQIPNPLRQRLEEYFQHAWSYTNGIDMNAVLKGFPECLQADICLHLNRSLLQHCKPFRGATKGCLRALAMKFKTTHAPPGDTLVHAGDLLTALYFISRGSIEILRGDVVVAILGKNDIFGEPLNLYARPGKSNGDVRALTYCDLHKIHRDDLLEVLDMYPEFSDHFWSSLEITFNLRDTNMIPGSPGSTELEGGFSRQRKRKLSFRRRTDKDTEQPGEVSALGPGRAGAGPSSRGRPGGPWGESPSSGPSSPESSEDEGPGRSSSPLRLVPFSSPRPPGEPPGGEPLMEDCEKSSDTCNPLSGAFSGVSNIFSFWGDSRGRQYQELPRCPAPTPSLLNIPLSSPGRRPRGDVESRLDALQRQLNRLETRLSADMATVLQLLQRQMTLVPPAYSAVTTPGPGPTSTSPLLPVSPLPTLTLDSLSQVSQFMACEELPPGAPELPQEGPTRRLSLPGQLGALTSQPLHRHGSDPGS
Sequence of D(3) dopamine receptor (P35462 whole entry): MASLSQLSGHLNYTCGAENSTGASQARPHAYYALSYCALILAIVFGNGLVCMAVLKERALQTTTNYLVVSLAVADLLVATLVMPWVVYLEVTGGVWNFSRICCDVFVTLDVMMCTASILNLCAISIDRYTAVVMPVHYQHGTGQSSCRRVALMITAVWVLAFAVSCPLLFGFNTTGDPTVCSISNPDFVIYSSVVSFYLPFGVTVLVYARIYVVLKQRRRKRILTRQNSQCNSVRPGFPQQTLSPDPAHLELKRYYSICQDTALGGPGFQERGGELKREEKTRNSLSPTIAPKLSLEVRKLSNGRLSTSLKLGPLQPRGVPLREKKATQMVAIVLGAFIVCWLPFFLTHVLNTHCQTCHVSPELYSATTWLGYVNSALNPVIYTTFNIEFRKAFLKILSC
Sequence of cGMP-inhibited 3',5'-cyclic phosphodiesterase 3A (Q14432 whole entry): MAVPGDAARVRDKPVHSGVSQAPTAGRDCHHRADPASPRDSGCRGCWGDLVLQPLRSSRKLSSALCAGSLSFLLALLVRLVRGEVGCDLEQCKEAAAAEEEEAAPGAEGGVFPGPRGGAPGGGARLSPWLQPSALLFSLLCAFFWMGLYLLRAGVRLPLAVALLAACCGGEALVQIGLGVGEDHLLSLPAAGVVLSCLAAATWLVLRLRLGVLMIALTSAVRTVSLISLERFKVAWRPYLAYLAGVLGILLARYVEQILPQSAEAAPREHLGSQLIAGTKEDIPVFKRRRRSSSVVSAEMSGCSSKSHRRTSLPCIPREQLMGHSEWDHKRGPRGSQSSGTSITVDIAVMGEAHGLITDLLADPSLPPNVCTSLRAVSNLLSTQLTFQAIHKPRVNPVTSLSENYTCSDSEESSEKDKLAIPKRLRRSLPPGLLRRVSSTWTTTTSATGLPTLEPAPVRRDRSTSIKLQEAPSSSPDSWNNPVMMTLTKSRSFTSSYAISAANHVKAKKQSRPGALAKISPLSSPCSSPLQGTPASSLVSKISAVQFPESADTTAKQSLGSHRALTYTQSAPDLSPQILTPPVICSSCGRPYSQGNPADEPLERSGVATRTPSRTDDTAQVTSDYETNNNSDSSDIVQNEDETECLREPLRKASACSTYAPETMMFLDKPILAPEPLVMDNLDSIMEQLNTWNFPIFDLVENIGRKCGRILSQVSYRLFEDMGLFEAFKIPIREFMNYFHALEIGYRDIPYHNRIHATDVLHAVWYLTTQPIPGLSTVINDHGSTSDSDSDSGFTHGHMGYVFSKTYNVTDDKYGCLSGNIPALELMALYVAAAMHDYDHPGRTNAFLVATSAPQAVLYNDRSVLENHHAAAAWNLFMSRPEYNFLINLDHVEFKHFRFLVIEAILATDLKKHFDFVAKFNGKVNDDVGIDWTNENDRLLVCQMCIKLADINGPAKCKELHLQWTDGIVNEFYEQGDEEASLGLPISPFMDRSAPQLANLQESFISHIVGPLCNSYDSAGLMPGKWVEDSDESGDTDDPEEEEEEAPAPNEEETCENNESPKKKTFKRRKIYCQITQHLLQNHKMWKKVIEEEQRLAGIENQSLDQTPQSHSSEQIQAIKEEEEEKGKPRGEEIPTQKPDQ
Sequence of Sodium-dependent dopamine transporter (Q01959 whole entry): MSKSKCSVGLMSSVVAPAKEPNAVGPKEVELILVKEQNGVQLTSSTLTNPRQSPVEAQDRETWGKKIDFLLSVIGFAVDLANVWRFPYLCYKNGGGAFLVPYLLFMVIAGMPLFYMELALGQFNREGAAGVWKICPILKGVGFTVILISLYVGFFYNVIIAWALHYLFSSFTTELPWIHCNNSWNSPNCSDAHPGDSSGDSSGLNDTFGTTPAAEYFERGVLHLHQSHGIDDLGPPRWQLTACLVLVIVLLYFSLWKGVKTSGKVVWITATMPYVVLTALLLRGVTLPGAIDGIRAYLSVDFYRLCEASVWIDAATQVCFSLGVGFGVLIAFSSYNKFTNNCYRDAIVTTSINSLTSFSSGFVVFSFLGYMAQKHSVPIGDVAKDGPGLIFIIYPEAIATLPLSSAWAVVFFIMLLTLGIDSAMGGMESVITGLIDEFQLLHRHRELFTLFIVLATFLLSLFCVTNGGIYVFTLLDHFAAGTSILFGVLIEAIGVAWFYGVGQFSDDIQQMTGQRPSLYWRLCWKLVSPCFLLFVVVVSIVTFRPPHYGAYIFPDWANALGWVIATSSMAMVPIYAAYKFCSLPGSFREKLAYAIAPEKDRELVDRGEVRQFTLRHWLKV
T2 sequence (P62813 whole entry): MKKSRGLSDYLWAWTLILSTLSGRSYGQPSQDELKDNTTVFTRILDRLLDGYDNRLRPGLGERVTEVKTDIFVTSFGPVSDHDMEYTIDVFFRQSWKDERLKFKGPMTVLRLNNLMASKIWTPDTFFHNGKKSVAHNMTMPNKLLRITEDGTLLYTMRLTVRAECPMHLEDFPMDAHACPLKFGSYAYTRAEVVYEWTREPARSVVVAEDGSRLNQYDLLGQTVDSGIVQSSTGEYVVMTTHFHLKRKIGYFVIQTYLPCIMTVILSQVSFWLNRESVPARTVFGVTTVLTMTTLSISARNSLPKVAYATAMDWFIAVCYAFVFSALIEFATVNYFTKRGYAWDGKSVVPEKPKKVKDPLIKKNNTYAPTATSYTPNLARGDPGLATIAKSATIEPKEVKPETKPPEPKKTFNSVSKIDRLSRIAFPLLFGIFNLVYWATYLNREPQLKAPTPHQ
Sequence of Prostaglandin G/H synthase 1 (P23219 whole entry): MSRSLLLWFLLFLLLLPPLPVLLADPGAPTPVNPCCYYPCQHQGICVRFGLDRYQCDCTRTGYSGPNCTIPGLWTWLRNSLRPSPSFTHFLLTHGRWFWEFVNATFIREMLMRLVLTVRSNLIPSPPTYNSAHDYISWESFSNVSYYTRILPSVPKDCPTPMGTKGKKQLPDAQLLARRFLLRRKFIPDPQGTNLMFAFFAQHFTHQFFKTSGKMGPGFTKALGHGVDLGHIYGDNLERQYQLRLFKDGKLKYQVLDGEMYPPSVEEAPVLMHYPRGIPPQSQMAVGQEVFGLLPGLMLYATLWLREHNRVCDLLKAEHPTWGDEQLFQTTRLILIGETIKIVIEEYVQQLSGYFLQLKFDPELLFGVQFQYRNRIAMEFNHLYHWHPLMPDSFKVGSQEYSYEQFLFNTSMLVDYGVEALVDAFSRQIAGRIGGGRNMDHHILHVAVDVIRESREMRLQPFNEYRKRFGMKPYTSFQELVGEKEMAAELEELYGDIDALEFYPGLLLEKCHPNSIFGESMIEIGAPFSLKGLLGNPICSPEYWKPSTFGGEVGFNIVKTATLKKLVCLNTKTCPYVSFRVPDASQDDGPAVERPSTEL
Sequence of Acetylcholinesterase (P22303 whole entry): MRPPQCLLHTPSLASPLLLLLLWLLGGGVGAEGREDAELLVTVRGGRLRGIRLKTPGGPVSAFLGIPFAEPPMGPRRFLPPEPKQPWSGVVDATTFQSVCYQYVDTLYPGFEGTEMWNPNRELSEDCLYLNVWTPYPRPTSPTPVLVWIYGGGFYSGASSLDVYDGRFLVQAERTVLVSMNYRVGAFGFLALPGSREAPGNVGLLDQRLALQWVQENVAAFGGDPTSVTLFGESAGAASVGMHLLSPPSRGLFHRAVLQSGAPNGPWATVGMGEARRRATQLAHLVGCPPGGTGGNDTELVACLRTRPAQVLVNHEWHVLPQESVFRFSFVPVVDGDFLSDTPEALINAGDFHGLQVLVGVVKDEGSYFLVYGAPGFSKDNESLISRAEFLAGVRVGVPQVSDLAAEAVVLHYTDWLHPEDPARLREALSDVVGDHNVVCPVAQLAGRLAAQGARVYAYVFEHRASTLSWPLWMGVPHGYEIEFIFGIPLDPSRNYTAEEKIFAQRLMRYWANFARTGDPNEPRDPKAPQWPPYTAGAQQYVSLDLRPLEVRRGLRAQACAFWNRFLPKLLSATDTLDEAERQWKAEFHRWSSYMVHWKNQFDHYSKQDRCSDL

Consider `OC[C@H]1O[C@@H](c2ccc(Cl)c(Cc3ccc(O[C@H]4CCOC4)cc3)c2)[C@H](O)[C@@H](O)[C@@H]1O` [EMPAGLIFLOZIN], for which the AC50 (at Acetylcholinesterase; in [1]; at D(3) dopamine receptor; on Prothrombin; in assay [2]; on Histamine H3 receptor) was over 30 µM in each case. For the same compound, the AC50 (in assay [3]; in assay [4]; in assay [5]; on Progesterone receptor; in assay [6]; in assay [7]) was over 30 µM each time. This compound also yielded an AC50 on Thromboxane A2 receptor of over 30 µM.

Regarding `N#Cc1ccc2c(c1)N(CCCN1CCC(O)CC1)c1ccccc1S2` [PERICIAZINE], the AC50 is 29.1 µM on Acetylcholinesterase; 5.58 µM in [1]; over 30 µM on Prothrombin; 29.8 µM in [2]; over 30 µM at Histamine H3 receptor; 8.8 µM in assay [3]. Moreover, the AC50 was 5.82 µM in [4]; over 30 µM in assay [5]; 22.1 µM at Progesterone receptor; 21.5 µM in assay [6]; over 30 µM at Thromboxane A2 receptor.

Regarding `OC[C@H]1O[C@@](CO)(O[C@H]2O[C@H](CO)[C@@H](O)[C@H](O)[C@H]2O)[C@@H](O)[C@@H]1O` [SUCROSE], the AC50 (at Acetylcholinesterase; at D(3) dopamine receptor; on Prothrombin; in [2]; in assay [8]; on Histamine H3 receptor) was over 30 µM in each case. Further, the AC50 (in assay [3]; in [4]; in assay [5]; on Progesterone receptor; in assay [6]; in [7]) was over 30 µM throughout. At Thromboxane A2 receptor, this compound gave an AC50 of over 30 µM.

For the compound `CC[C@H](C)C[C@H](C)CCCCCCCCC(=O)N[C@H]1C[C@@H](O)[C@@H](NCCN)NC(=O)[C@@H]2[C@@H](O)CCN2C(=O)[C@H]([C@H](O)CCN)NC(=O)[C@H]([C@H](O)[C@@H](O)c2ccc(O)cc2)NC(=O)[C@@H]2C[C@@H](O)CN2C(=O)[C@H]([C@@H](C)O)NC1=O` [CASPOFUNGIN], the AC50 is over 30 µM at Acetylcholinesterase; 15.7 µM in [1]; over 30 µM at D(3) dopamine receptor; over 30 µM at Prothrombin; over 30 µM in [2]; over 30 µM on Histamine H3 receptor. Besides, the concentration at half-maximal activity (AC50) in [3] was over 30 µM; in assay [5], over 30 µM; at Progesterone receptor it was 5.7 µM; in assay [7], 4.13 µM; on Thromboxane A2 receptor it was over 30 µM.

For `OC[C@H]1O[C@@H](c2ccc(F)c(Cc3cc4ccccc4s3)c2)[C@H](O)[C@@H](O)[C@@H]1O` [IPRAGLIFLOZIN], the AC50 on Acetylcholinesterase is over 30 µM; in [1], 19.8 µM; on D(3) dopamine receptor, over 30 µM; at Prothrombin, over 30 µM; in assay [2], over 30 µM; at Histamine H3 receptor it was over 30 µM. Besides, the AC50 is over 30 µM in assay [3]; over 30 µM in assay [5]; over 30 µM at Progesterone receptor; over 30 µM in [6]; 7.69 µM in assay [7]; over 30 µM at Thromboxane A2 receptor.

As to `CN(CC1(C)CCCO1)S(=O)(=O)c1ccc(Cl)c(S(N)(=O)=O)c1` (configuration not stated) [MEFRUSIDE], the concentration at half-maximal activity (AC50) (at Acetylcholinesterase; on D(3) dopamine receptor; on Prothrombin; in assay [2]; in [8]; at Histamine H3 receptor) was over 30 µM throughout. Also, the half-maximal activity concentration (AC50) (in assay [3]; in assay [4]; in assay [5]; at Progesterone receptor; in assay [6]; in [7]) was over 30 µM in each case. On Thromboxane A2 receptor, this compound registered an AC50 of over 30 µM.

Regarding `C#C[C@]1(O)CC[C@H]2[C@@H]3CCC4=CC(=O)CC[C@@H]4[C@H]3C(=C)C[C@@]21CC` [ETONOGESTREL], the half-maximal activity concentration (AC50) was over 30 µM on Acetylcholinesterase; over 30 µM on D(3) dopamine receptor; over 30 µM at Prothrombin; 28 µM in [2]; 27 µM in assay [8]; over 30 µM on Histamine H3 receptor. The half-maximal activity concentration (AC50) in [3] was over 30 µM; in assay [4], over 30 µM; in [5] it was over 30 µM; on Progesterone receptor, 0.003 µM; in assay [6], over 30 µM; in assay [7], over 30 µM. For the same compound, the AC50 on Thromboxane A2 receptor is over 30 µM.

In the case of `CCc1nc(C(N)=O)c(Nc2ccc(N3CCC(N4CCN(C)CC4)CC3)c(OC)c2)nc1NC1CCOCC1` [GILTERITINIB], the AC50 was over 30 µM on Acetylcholinesterase; over 0.3 µM in assay [1]; 26.7 µM on D(3) dopamine receptor; over 30 µM on Prothrombin; over 30 µM in assay [2]; 13.7 µM at Histamine H3 receptor. Further, the AC50 (in [3]; in assay [5]; on Progesterone receptor; in assay [6]; in assay [7]; on Thromboxane A2 receptor) was over 30 µM throughout.

For `CCCC(CCC)C(=O)O` [VALPROIC ACID], the AC50 on Acetylcholinesterase is over 30 µM; on D(3) dopamine receptor, over 30 µM; on Prothrombin, over 30 µM; in assay [2], over 30 µM; in [8], over 10 µM; on Histamine H3 receptor, over 30 µM. In addition, the AC50 (in [3]; in assay [5]; at Progesterone receptor; in [6]; in [7]; on Thromboxane A2 receptor) was over 30 µM each time.

As for `CC(=O)Oc1cc(C(F)(F)F)ccc1C(=O)O` [TRIFLUSAL], the AC50 (on Acetylcholinesterase; in assay [1]; at D(3) dopamine receptor; on Prothrombin; in assay [2]; at Histamine H3 receptor) was over 30 µM in each case. The AC50 (in [3]; in assay [5]; on Progesterone receptor; in assay [6]; in [7]; at Thromboxane A2 receptor) was over 30 µM each time.
